# According to US20210147343A1 (priority 2018, published 2021):
# Counter-ions that a name gives are not always drawn.
# Target: T1, mu opioid receptor (MOR) (Homo sapiens, UniProt P35372)
# Assay: MOR GTPγS agonist assay
# Type: biochemical
# Design: host or cells: CHO-K1
# Settings: membranes of CHO cells over-expressing MOR; SPA beads; read-out: MOR GTPγS EC50
# From the text: Membranes obtained from the stable cell lines over-expressing MOR were subjected to GTPγS assay using SPA beads (Perkin Elmer, Cat #RPNQ0001).
# T1 sequence (P35372 whole entry): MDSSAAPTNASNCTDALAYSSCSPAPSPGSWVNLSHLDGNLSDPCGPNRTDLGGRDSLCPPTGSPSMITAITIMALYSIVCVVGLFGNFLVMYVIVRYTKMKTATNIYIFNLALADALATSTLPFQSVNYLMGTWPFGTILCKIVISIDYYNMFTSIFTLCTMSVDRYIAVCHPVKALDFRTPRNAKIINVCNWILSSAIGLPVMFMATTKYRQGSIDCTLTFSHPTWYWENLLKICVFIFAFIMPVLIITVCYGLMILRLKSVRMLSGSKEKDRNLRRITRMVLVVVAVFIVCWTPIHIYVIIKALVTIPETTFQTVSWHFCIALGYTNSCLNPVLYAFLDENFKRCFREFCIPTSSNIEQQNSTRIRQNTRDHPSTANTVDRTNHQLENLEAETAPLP
row,SMILES,EC50 [nM]
1,CNC(=O)c1cc(C)c(C[C@@H](CNC(=O)c2ccccc2)N(C)C)c(C)c1 [Compound C-45],< 100
2,"CN(C)[C@H](CNC(=O)c1ccc(Cl)cc1Cl)Cc1ccc2n[nH]cc2c1 [Compound C-50, (S)-2,4-dichloro-N-(2-(dimethylamino)-3-(1H-indazol-5-yl)propyl) benzamide]",100 to 1000
3,CNC(=O)c1cc(C)c(C[C@@H](CNC(=O)c2ccc(OC)cc2)N(C)C)c(C)c1 [Compound C-17],< 100
4,CNC(=O)c1ccc(C[C@@H](CNC(=O)c2ccc(Cl)c(Cl)c2)N(C)CC2CC2)cc1F [Compound C-38],< 100
5,"CN(C)[C@](C)(CNC(=O)c1ccc(Cl)c(Cl)c1)Cc1ccc(O)cc1 [Compound C-3, (S)-3,4-dichloro-N-(2-(dimethylamino)-3-(4-hydroxyphenyl)-2-methylpropyl)benzamide]",> 1000
6,"Cc1ccc(C(=O)NC[C@H](Cc2ccc(C(N)=O)cc2)N(C)C)c(C)c1 [Compound C-67, (S)—N-(3-(4-carbamoylphenyl)-2-(dimethylamino)propyl)-2,4-dimethylbenzamide]",< 100
7,CNC(=O)c1cc(C)c(C[C@@H](CNC(=O)c2ncc(Cl)cc2Cl)N(C)C)c(C)c1 [Compound C-48],100 to 1000
8,CNC(=O)c1ccc(C[C@@H](CNC(=O)c2cccc(Cl)c2)N(C)C)c(Cl)c1 [Compound C-41],< 100
9,CN(C)[C@H](CNC(=O)c1ccc(C2CC2)cc1)Cc1ccc(O)cc1Cl [Compound C-20],> 1000
10,CNC(=O)c1cc(C)c(C[C@@H](CNC(=O)c2ccc(Cl)c(F)c2)N(C)C)c(C)c1 [Compound C-13],< 100
11,CNC(=O)c1cc(C)c(C[C@@H](CNC(=O)c2ccccn2)N(C)C)c(C)c1 [Compound C-46],> 1000
12,"Cc1cc(O)cc(C)c1C[C@@H](CNC(=O)N1CCc2ccccc2C1)N(C)C [Compound C-55, (S)—N-(2-(dimethylamino)-3-(4-hydroxy-2,6-dimethyphenyl)propyl)-3,4-dihydroisoquinoline-2(1H)-carboxamide]",> 1000
13,"CNC(=O)c1cc(C)c(C[C@@H](CNC(=O)c2ccc(Cl)c(Cl)c2)N(C)C)c(C)c1 [Compound C-42, (S)-4-(3-(3,4-Dichlorobenzamido)-2-(dimethylamino)propyl)-N,3,5-trimethylbenzamide Hydrochloride]",< 100
14,Cc1cc(O)cc(C)c1C[C@@H](CNC(=O)c1cc(F)c(Cl)c(F)c1)N(C)C [Compound C-29],< 100
15,"CN1Cc2cc(O)ccc2C[C@H]1CNC(=O)N1CCc2ccccc2C1 [Compound C-53, (S)—N-((7-hydroxy-2-methyl-1,2,3,4-tetrahydroisoquinolin-3-yl)methyl)-3,4-dihydroisoquinoline-2(1H)-carboxamide]",< 100
16,CNC(=O)c1cc(C)c(C[C@@H](CNC(=O)c2cccc(Cl)c2)N(C)C)c(C)c1 [Compound C-44],< 100
17,"CNC(=O)c1ccc(C[C@@H](CNC(=O)N2CCc3ccccc3C2)N(C)C)cc1F [Compound C-58, (S)—N-(2-(dimethylamino)-3-(3-fluoro-4-(methylcarbamoyl)phenyl)propyl)-3,4-dihydroisoquinoline-2(1H)-carboxamide]",< 100

# Target: T2, kappa opioid receptor (KOR) (Homo sapiens, UniProt P41145)
# T2 construct: host or cells: CHO-K1
# T2 sequence (P41145 whole entry): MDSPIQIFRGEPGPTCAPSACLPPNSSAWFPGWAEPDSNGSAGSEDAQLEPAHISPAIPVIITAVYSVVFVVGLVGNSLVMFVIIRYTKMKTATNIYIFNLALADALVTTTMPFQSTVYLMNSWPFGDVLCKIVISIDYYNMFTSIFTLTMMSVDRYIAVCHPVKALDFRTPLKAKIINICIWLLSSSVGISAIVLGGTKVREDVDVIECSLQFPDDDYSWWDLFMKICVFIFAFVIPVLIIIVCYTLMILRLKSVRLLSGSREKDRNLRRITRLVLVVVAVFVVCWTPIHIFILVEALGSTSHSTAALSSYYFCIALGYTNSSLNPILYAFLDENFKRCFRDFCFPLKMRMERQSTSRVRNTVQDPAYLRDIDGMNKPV
# Assay: cell-based
# Settings: kOR cAMP IC50, CHO-K1 cells expressing kOR; after activation with dynorphin B
# From the text: KOR cAMP Antagonist Assay
row,SMILES,IC50 [nM]
1,"CN(C)[C@H](CNC(=O)[C@@H]1C[C@]1(C)c1ccccc1)Cc1ccc(O)cc1 [Compound B-12, (1R,2S)—N—((S)-2-(dimethylamino)-3-(4-hydroxyphenyl)propyl)-2-methyl-2-phenylcyclopropane-1-carboxamide]",< 100
2,"C[C@H](CC(=O)NC[C@H](Cc1ccc(C(N)=O)cc1)N(C)C)c1ccccc1 [Compound A-10, 4-((S)-2-(dimethylamino)-3-((R)-3-phenylbutanamido)propyl)benzamide]",100 to 1000
3,"CN(C)[C@H](CNC(=O)[C@@H]1C[C@]1(C)c1ccccc1)Cc1cc(F)c(O)c(Cl)c1 [Compound B-24, (1R,2S)—N—((S)-3-(3-chloro-5-fluoro-4-hydroxyphenyl)-2-(dimethylamino)propyl)-2-methyl-2-phenylcyclopropane-1-carboxamide]",100 to 1000
4,CNC(=O)c1cc(C)c(C[C@@H](CNC(=O)c2ccccc2)N(C)C)c(C)c1 [Compound C-45],> 1000
5,"CN(C)[C@H](CNC(=O)[C@H]1C[C@@H]1c1ccccc1)Cc1ccc(O)cc1 [Compound B-18, (1S,2S)—N—((S)-2-(dimethylamino)-3-(4-hydroxyphenyl)propyl)-2-phenylcyclopropane-1-carboxamide]",100 to 1000
6,"Cc1ccc(C(=O)NC[C@H](Cc2ccc(C(N)=O)cc2)N(C)C)c(C)c1 [Compound C-67, (S)—N-(3-(4-carbamoylphenyl)-2-(dimethylamino)propyl)-2,4-dimethylbenzamide]",> 1000
7,"CN(C)[C@H](CNC(=O)[C@@H]1C[C@@]1(C)c1ccccc1)Cc1ccc(O)cc1F [Compound B-44, (1R,2R)—N—((S)-2-(dimethylamino)-3-(2-fluoro-4-hydroxyphenyl)propyl)-2-methyl-2-phenylcyclopropane-1-carboxamide]",> 1000

# Target: T1, mu opioid receptor (MOR)
# Assay: MOR cAMP agonist assay
# Settings: not given
row,SMILES,EC50 [nM]
1,"CN(C)[C@H](CNC(=O)[C@@H]1C[C@]1(C)c1ccccc1)Cc1ccc(O)cc1 [Compound B-12, (1R,2S)—N—((S)-2-(dimethylamino)-3-(4-hydroxyphenyl)propyl)-2-methyl-2-phenylcyclopropane-1-carboxamide]",> 1000
2,"CNC(=O)c1c(F)cc(C[C@@H](CNC(=O)[C@@H]2C[C@]2(C)c2ccccc2)N(C)C)cc1F [Compound B-27, 4-((S)-2-(dimethylamino)-3-((1R,2S)-2-methyl-2-phenylcyclopropane-1-carboxamido)propyl)-2,6-difluoro-N-methylbenzamide]",< 100
3,"CC[C@@]1(c2ccccc2)C[C@H]1C(=O)NC[C@H](Cc1ccc(C(=O)NC)c(F)c1)N(C)C [Compound B-21, 4-((S)-2-(dimethylamino)-3-((1R,2R)-2-ethyl-2-phenylcyclopropane-1-carboxamido)propyl)-2-fluoro-N-methylbenzamide]",< 100
4,"CNC(=O)c1cc(C)c(C[C@@H](CNC(=O)[C@@H]2C[C@@]2(C)c2ccccc2)N(C)C)cc1F [Compound B-26, 4-((S)-2-(dimethylamino)-3-((1R,2R)-2-methyl-2-phenylcyclopropane-1-carboxamido)propyl)-2-fluoro-N,5-dimethylbenzamide]",< 100
5,"CN(CC1CC1)[C@H](CNC(=O)[C@@H]1C[C@]1(C)c1ccccc1)Cc1ccc2[nH]c(=O)oc2c1 [Compound B-32, (1R,2S)—N—((S)-2-((cyclopropylmethyl)(methyl)amino)-3-(2-oxo-2,3-dihydrobenzo[d]oxazol-6-yl)propyl)-2-methyl-2-phenylcyclopropane-1-carboxamide]",100 to 1000
6,"CCNC(=O)c1ccc(C[C@@H](CNC(=O)[C@@H]2C[C@@]2(C)c2ccccc2)N(C)C)cc1F [Compound B-23, 4-((S)-2-(dimethylamino)-3-((1R,2R)-2-methyl-2-phenylcyclopropane-1-carboxamido)propyl)-N-ethyl-2-fluorobenzamide]",< 100
7,"CN(C)[C@H](CNC(=O)[C@@H]1C[C@@H]1c1ccccc1)Cc1ccc(O)cc1 [Compound B-25, (1R,2S)—N—((S)-2-(dimethylamino)-3-(4-hydroxyphenyl)propyl)-2-phenylcyclopropane-1-carboxamide]",100 to 1000
8,"CN(CC(F)(F)F)[C@H](CNC(=O)[C@@H]1C[C@]1(C)c1ccccc1)Cc1ccc(C(=O)NC2CC2)c(F)c1 [Compound B-29, N-cyclopropyl-2-fluoro-4-((S)-2-(methyl(2,2,2-trifluoroethyl)amino)-3-((1R,2S)-2-methyl-2-phenylcyclopropane-1-carboxamido)propyl)benzamide]",< 100
9,"CN(C)[C@H](CNC(=O)[C@@H]1C[C@@]1(C)c1ccccc1)Cc1ccc(O)c(Cl)c1 [Compound B-59, (1R,2R)—N—((S)-3-(3-chloro-4-hydroxyphenyl)-2-(dimethylamino)propyl)-2-methyl-2-phenylcyclopropane-1-carboxamide]",< 100
10,"CNC(=O)c1ccc(C[C@@H](CNC(=O)[C@H]2C[C@]2(C)c2ccccc2)N(C)C)cc1F [Compound B-22, 4-((S)-2-(dimethylamino)-3-((1S,2S)-2-methyl-2-phenylcyclopropane-1-carboxamido)propyl)-2-fluoro-N-methylbenzamide]",< 100
11,"CN(C)[C@H](CNC(=O)[C@@H]1C[C@@]1(C)c1ccccc1)Cc1cc2cn[nH]c2cc1Cl [Compound B-52, (1R,2R)—N—((S)-3-(6-chloro-2H-indazol-5-yl)-2-(dimethylamino)propyl)-2-methyl-2-phenylcyclopropane-1-carboxamide]",< 100
12,"CN1Cc2cc(O)ccc2C[C@H]1CNC(=O)[C@@H]1C[C@]1(C)c1ccccc1 [Compound B-50, (1R,2S)—N—(((S)-7-hydroxy-2-methyl-1,2,3,4-tetrahydroisoquinolin-3-yl)methyl)-2-methyl-2-phenylcyclopropane-1-carboxamide]",< 100
13,"CNC(=O)c1cc(F)c(C[C@@H](CNC(=O)[C@@H]2C[C@]2(C)c2ccccc2)N(C)C)cc1F [Compound B-28, 4-((S)-2-(dimethylamino)-3-((1R,2S)-2-methyl-2-phenylcyclopropane-1-carboxamido)propyl)-2,5-difluoro-N-methylbenzamide]",< 100
14,"CCNC(=O)c1ccc(C[C@@H](CNC(=O)[C@@H]2C[C@]2(C)c2ccccc2)N(C)C)cc1F [Compound B-34, 4-((S)-2-(dimethylamino)-3-((1R,2S)-2-methyl-2-phenylcyclopropane-1-carboxamido)propyl)-N-ethyl-2-fluorobenzamide]",< 100
15,"CN(C)[C@H](CNC(=O)[C@@H]1C[C@@]1(C)c1ccccc1)Cc1ccc2[nH]c(=O)oc2c1 [Compound B-53, (1R,2R)—N—((S)-2-(dimethylamino)-3-(2-oxo-2,3-dihydrobenzo[d]oxazol-6-yl)propyl)-2-methyl-2-phenylcyclopropane-1-carboxamide]",< 100
16,"CN1Cc2cc(O)ccc2C[C@H]1CNC(=O)[C@@H]1C[C@@]1(C)c1ccccc1 [Compound B-51, (1R,2R)—N—(((S)-7-hydroxy-2-methyl-1,2,3,4-tetrahydroisoquinolin-3-yl)methyl)-2-methyl-2-phenylcyclopropane-1-carboxamide]",< 100
